In patent US20230025280A1, “PH RESPONSIVE COMPOSITIONS, FORMULATIONS, AND METHODS OF IMAGING A TUMOR” (ONCONANO MEDICINE, INC, priority 2019, published 2023):
Values joined by “and” are separate entries in the source; they are usually repeats but may differ in a detail not shown here. Equal entries are not always repeated. “Also recorded” adds a separate entry of the source.

Tests used:
[1] = tested on: solid neoplasia; assay: Tumor imaging in dogs with solid neoplasia; type: in vivo, dog
Experimental: Materials and methods: After evaluation and recruitment for the study, dog-patients underwent (A) pre-operation analysis to identify possible types of lesion, and (B) Compound 1 tracer was administrated at 0.5 to 2.0 mg/kg, 18-78 hours prior to surgery. During the surgery (C) intra-operative imaging was performed using a Hamamatsu PDE or custom NIR camera before and after tumor removal (or after limb amputations). Resected tissues were (D) imaged with a LI-COR Pearl Imaging station and tumor-to-normal-tissue ratios were calculated accordingly. The resected tissues were then (E) preserved for histopathology validation. Safety was assessed separately in terms of adverse effects through physical examinations, laboratory tests and the recording of adverse events from infusion through discharge from hospital.
Results: A summary of the data from spayed or neutered dog patients that were recruited for the study is shown below (Table 16). Results from a total of seven dogs of different breeds, aged 4-12 years, body weights ranging from 20.9-59.5 kg, and with a range of tumors ware presented, including instances where more than one tumor was present. Doses studied thus far ranged from 0.5-2.0 mg/kg. […] Both acute and chronic adverse effects were monitored from the time of injection through discharge of the animals from the hospital and follow-up appointments (to remove sutures) and noted.

[2] = pH-dependent activation of Compound 1 in human plasma
[3] = tested on: tumor positive surgical margins; assay: Fluorescence detection of tumor positive surgical margins versus final histopathology; type: in vivo, human; details: 1.2 mg/kg; EC; per patient
[4] = tested on: lymph node metastases; assay: Lymph node imaging (PEARL) versus H/E staining; type: in vivo, human
Source text: After lymph node dissection, lymph nodes were identified by the attending pathologist and harvested if present. After harvesting, the single lymph nodes were imaged before further processing using PEARL imaging. The images were processed using ImageJ (FiJi). The fluorescent images were reviewed by 2 separate researchers blinded for histology, whether fluorescence was present. The pathologist, blinded for fluorescence images, evaluated whether the lymph node was positive for tumor invasion or isolated tumor cells based on H/E staining.

[5] = tested on: breast cancer, HNSCC, prostate cancer, and ovarian cancer; assay: Phase 2 imaging of tumors 3-6 hours post dosing with multiple NIR cameras; type: in vivo, human
Experimental: The study also utilized data collected from different NIR cameras and from multiple sites. All patients received a single I.V. dose of Compound 1, followed by routine surgery approximately 3-6 hours after infusion of Compound 1. Pre-excision and post-excision intraoperative and backtable visualization a tumor from a breast cancer patient (101-001; UPenn; VisionSense NIR camera) dosed with Compound 1 (2 mg/kg) 6±3 hr prior to surgery and an HNSCC cancer patient (102-007; UTSW; NOVADAQ SPY Elite NIR camera) dosed with Compound 1 (3 mg/kg) 6±3 hr prior to surgery are shown in FIG. 22. In each case, white light imaging of the pre- or post-excised tumor/specimen is juxtaposed with an overlay of the fluorescence observed and the white light image, indicating the presence of the tumor. Intraoperative/in vivo imaging of prostate cancer from two patients (102-008 and 102-009; UTSW; Da Vinci Firefly NIR camera with updated software/hardware) dosed with Compound 1 (3 mg/kg) 6±3 hr prior to excision of the tumor and the imaging of wound bed after excision of the tumor are shown in FIG. 23. In each case, white light imaging of the pre-excised tumor/specimen and the surgical wound bed are juxtaposed with images of the fluorescence observed. […] A tumor from a patient (101-005) with ovarian cancer dosed with Compound 1 (3 mg/kg, 6±3 hr) was imaged in vivo pre-excision as shown in FIG. 24. A white light image juxtaposed with an overlay of the fluorescence observed and the white light image, indicating the presence of the tumor.

[6] = tested on: HNSCC specimen; assay: Fluorescence microscopy after spraying Compound 1 onto freshly frozen tissue sections; design: species or system human; details: sprayed ex vivo onto freshly frozen HNSCC sections
Source text: FIGS. 18A-18B describes fluorescence microscopy to confirm tumor-specific activation of Compound 1. […] DAPI was applied for nuclear staining (a) and Compound 1 for fluorescence visualization (b). […] RFU: relative fluorescence units.

[7] = 403 lymph nodes across 4 tumor types
[8] = TOTAL of all patients, 403 lymph nodes
[9] = lymph nodes per patient, fluorescence vs H/E pathology

What does the source list for “PEO90-140-b-P(DBA60-150-r-ICG0-3-r-AMA0-3) [Compound 1]”?
Fluorescent signals in diseased tissues ([1]; 7 dogs, 0.5-2.0 mg/kg, 24 or 72 hr before surgery): fluorescent signals were observed where expected for diseased tissues; Detection of occult disease ([1]; one dog-patient, metastatic popliteal lymph node): occult disease was identified; also recorded: identification of occult disease; Fluorescence on adding increasing amounts of Compound 1 ([2]; human plasma with HCl): increase in fluorescence; Fluorescence on adding increasing amounts of Compound 1 ([2]; human plasma, no acid): did not show any increase in fluorescence; Surgical Margin by Fluorescence [3]: Negative; Overall sensitivity in lymph nodes ([4]; 30/(30+34)): 0.47; Overall specificity in lymph nodes ([4]; 293/(46+293)): 0.86; Lymph nodes fluorescence negative / H/E negative [4, 7]: 293 of 339 and 293; Lymph nodes fluorescence negative / H/E positive [4, 7]: 34; Lymph nodes fluorescence negative, TOTAL [4, 7]: 327; Lymph nodes fluorescence positive / H/E negative [4, 7]: 46; Lymph nodes fluorescence positive / H/E positive [4, 7]: 30; Lymph nodes fluorescence positive, TOTAL [4, 7]: 76; False Negatives n [4, 8]: 34; False Positives n [4, 8]: 46; True Negatives n [4, 8]: 293; True Positives n [4, 8]: 30; False Negatives n [4, 9]: 0 (23×) and 1 (4×) and 3 and 2 and 25; False Positives n [4, 9]: 0 (12×) and 3 (4×) and 1 (9×) and 4 and 2 (2×) and 6 and 11; True Negatives n [4, 9]: 0 (12×) and 50 and 14 (2×) and 7 and 44 and 20 and 2 (3×) and 34 and 1 (2×) and 15 and 41 and 8 and 16 and 18 and 4; True Positives n [4, 9]: 2 (2×) and 0 (22×) and 1 (4×) and 12 and 10; Intraoperative fluorescence in prostate cancer ([5]; 3 mg/kg, 6±3 hr, Da Vinci Firefly camera): fluoresced intraoperatively; Fluorescence in the surgical bed after prostate tumor excision ([5]; 3 mg/kg, 6±3 hr, negative margins confirmed through pathology): No fluorescence was detected; Fluorescence in BC and HNSCC tumors ([5]; 3-5 hour dose schedule timing, SPY Elite camera): verified in all visible BC and HNSCC tumors; Ability to image tumors 3-6 hours after I.V. injection ([5]; Phase 2, breast cancer, HNSCC, prostate cancer, ovarian cancer, 2-3 mg/kg): demonstrated; Fluorescence delineation on tissue sections [6]: sharp delineation of fluorescence between the tumor and stromal tissue
